Measurements: patent publication US9932637B2, “Genetic polymorphisms associated with cardiovascular disorders and drug response, methods of detection and uses thereof” (CELERA CORPORATION, priority 2003, dated 2018)
Values joined by “and” are separate entries in the source; they are usually repeats but may differ in a detail not shown here. Equal values may be shown once.

Test system: patients with prior myocardial infarction (CARE study)
Experiment: CARE aligned analysis (prospective and case/control design, white males): association of genotypes with pravastatin efficacy (Tables 13, 15)
Format: in vivo, human
Conditions: for Pravastatin Patients n/total / Pravastatin Patients (%) / 2 Rare Alleles (%), Pravastatin Patients: F&NF MI; for Pravastatin Patients n/total / Pravastatin Patients (%): WM; for Pravastatin vs placebo odds ratio, 0 rare alleles / Pravastatin vs placebo odds ratio, 1 rare allele / Pravastatin vs placebo odds ratio, 2 rare alleles / 2 rare alleles n/total (%), pravastatin patients: CARE, F MI/SD/NF MI; for Pravastatin vs. Placebo Odds Ratio (95% CI), Patients with 0 Rare Alleles / n/total (%) cases, Pravastatin Patients, 0 Rare Alleles: PON1 hCV2548962, 0 rare alleles; for Pravastatin vs. Placebo Odds Ratio (95% CI), Patients with 0 Rare Alleles / n/total (%) cases, Pravastatin Patients, 0 Rare Alleles / Pravastatin vs. Placebo Odds Ratio (95% CI), Patients with 1 Rare Allele / n/total (%) cases, Pravastatin Patients, 1 Rare Allele / Pravastatin vs. Placebo Odds Ratio (95% CI), Patients with 2 Rare Alleles / n/total (%) cases, Pravastatin Patients, 2 Rare Alleles: White Males; for Pravastatin vs. Placebo Odds Ratio (95% CI), Patients with 1 Rare Allele / n/total (%) cases, Pravastatin Patients, 1 Rare Allele: PON1 hCV2548962, 1 rare allele
Description: The data presented in Table 8 based on an association of genotypes with pravastatin efficacy of the CARE samples were further analyzed and presented in Table 13. The further analysis was performed to align the data obtained from the analysis of the CARE samples, which was a prospective study, to the analysis of the WOSCOP samples, which was a case/control study. Table 13 also presents an analysis of the association of genotypes with pravastatin efficacy in the WOSCOPs samples. Relative to the analysis performed on the data presented in Table 8, there are two significant differences to determine if the SNP influenced pravastatin efficacy. Data obtained from the CARE samples were separated by study design into two groups, those in the prospective study design group and those in the case/control study design group. The original care study contained 16 protocol defined cardiovascular disease defined endpoints and 150 other phenotypes. […] The control groups used to compare the data were also divided into two groups, the “all possible” control group and the “cleaner” control group. […] Because the participants in the WOSCOPs trial were all white males, only data obtained from white males in the CARE study were analysed. Data from the “all possible” and “cleaner” controls were compared to data obtained from the cases in the prospective study design while only data from “cleaner” controls were compared to cases in the case/control study design. The data from the case/control cohorts were analysed using conditional logistic regression (as opposed to logistic regression used for the original anaylsis).
The anaylsis was refined as described for both Tables 13 and 14.

[1] = NPC1 hCV7490135, 0 Rare Alleles, CARE Prospective, Cleaner controls
[2] = NPC1 hCV7490135, 1 Rare Allele, CARE Prospective, Cleaner controls
[3] = NPC1 hCV25472673, 0 Rare Alleles, CARE Case/Control, Cleaner controls
[4] = NPC1 hCV25472673, 0 Rare Alleles, CARE Prospective, Cleaner controls
[5] = NPC1 hCV25472673, 1 Rare Allele, CARE Case/Control, Cleaner controls
[6] = NPC1 hCV25472673, 1 Rare Allele, CARE Prospective, Cleaner controls
[7] = PLAB hCV7494810, 0 Rare Alleles, CARE Case/Control, All Possible controls
[8] = PLAB hCV7494810, 0 Rare Alleles, CARE Case/Control, Cleaner controls
[9] = PLAB hCV7494810, 0 Rare Alleles, CARE Prospective, All Possible controls
[10] = PLAB hCV7494810, 1 Rare Allele, CARE Case/Control, All Possible controls
[11] = PLAB hCV7494810, 1 Rare Allele, CARE Case/Control, Cleaner controls
[12] = PLAB hCV7494810, 1 Rare Allele, CARE Prospective, All Possible controls
[13] = PLAB hCV7494810, Case/Control, listed as Pravastatin
[14] = PLAB hCV7494810, Prospective, listed as Pravastatin
[15] = CARE Case/Control, Fatal & Nonfatal MI, Cleaner controls
[16] = CARE Prospective, Fatal & Nonfatal MI, Cleaner controls
[17] = CARE Prospective, Total CHD Events, All Possible controls
[18] = PON1 hCV2548962, 2 rare alleles, CARE Case/Control, Fatal & Nonfatal MI, Cleaner controls
[19] = PON1 hCV2548962, 2 rare alleles, CARE Prospective, Fatal & Nonfatal MI, Cleaner controls

For `CC[C@H](C)C(=O)O[C@H]1C[C@H](O)C=C2C=C[C@H](C)[C@H](CC[C@@H](O)C[C@@H](O)CC(=O)O)[C@H]21` [pravastatin], the “Pravastatin Patients n/total” value (NOS3 hCV3219460, 1 Rare Allele, CARE Prospective, Cleaner controls) was 64/366, the “Pravastatin vs placebo odds ratio, 0 rare alleles” value (NOS3 hCV3219460, Case/Control) was 0.76 and 0.67 and the “Pravastatin vs placebo odds ratio, 1 rare allele” value (NOS3 hCV3219460, Case/Control) was 1.04 and 0.98. The “Pravastatin vs placebo odds ratio, 2 rare alleles” value (NOS3 hCV3219460, Case/Control) was 0.27 and 0.23, the “Pravastatin vs placebo odds ratio, 0 rare alleles” value (NOS3 hCV3219460, Prospective) was 0.79 and 0.70 and the “Pravastatin vs placebo odds ratio, 1 rare allele” value (NOS3 hCV3219460, Prospective) was 1.04 and 0.95. For the same molecule, the “Pravastatin vs placebo odds ratio, 2 rare alleles” value (NOS3 hCV3219460, Prospective) was 0.27 and 0.22, the “Pravastatin Patients (%)” value [1] was “(18.3%)” and the “Pravastatin Patients n/total” value [1] was 44/240. The “Pravastatin Patients (%)” value [2] was “(13.7%)”, the “Pravastatin Patients n/total” value [2] was 56/408 and the “2 Rare Alleles (%), Pravastatin Patients” value (NPC1 hCV7490135, CARE Prospective) was “(13.8%)”. The “Pravastatin Patients (%)” value [3] was “(17.4%)”, the “Pravastatin Patients n/total” value [3] was 53/304 and the “Pravastatin Patients (%)” value [4] was “(17.3%)”. For the same molecule, the “Pravastatin Patients n/total” value [4] was 53/307, the “Pravastatin Patients (%)” value [5] was “(13.5%)” and the “Pravastatin Patients n/total” value [5] was 51/378. The “Pravastatin Patients (%)” value [6] was “(13.2%)”, the “Pravastatin Patients n/total” value [6] was 51/386 and the “2 Rare Alleles (%), Pravastatin Patients” value (NPC1 hCV25472673, CARE Case/Control) was “(15.0%)”. For the same molecule, the “2 Rare Alleles (%), Pravastatin Patients” value (NPC1 hCV25472673, CARE Prospective) was “(14.7%)”, the “2 rare alleles n/total (%), pravastatin patients” value (“2 rare alleles n/total (%)” below) (NPC1 hCV25472673, Case/Control) was “(12.6%)” and the “Pravastatin vs placebo odds ratio, 0 rare alleles” value (NPC1 hCV25472673, Case/Control) was 1.21. The “Pravastatin vs placebo odds ratio, 1 rare allele” value (NPC1 hCV25472673, Case/Control) was 0.65, the “Pravastatin vs placebo odds ratio, 2 rare alleles” value (NPC1 hCV25472673, Case/Control) was 0.34 and the “2 rare alleles n/total (%)” value (NPC1 hCV25472673, Prospective) was “(8.7%)”. The “Pravastatin vs placebo odds ratio, 0 rare alleles” value (NPC1 hCV25472673, Prospective) was 1.25, the “Pravastatin vs placebo odds ratio, 1 rare allele” value (NPC1 hCV25472673, Prospective) was 0.71 and 0.62 and the “Pravastatin vs placebo odds ratio, 2 rare alleles” value (NPC1 hCV25472673, Prospective) was 0.49 and 0.34. For the same molecule, the “Pravastatin Patients (%)” value [7] was “(12.2%)”, the “Pravastatin Patients n/total” value [7] was 84/691 and the “Pravastatin Patients (%)” value [8] was “(17.5%)”. The “Pravastatin Patients n/total” value [8] was 84/481, the “Pravastatin Patients (%)” value [9] was “(11.9%)” and the “Pravastatin Patients n/total” value [9] was 84/706. The “Pravastatin Patients (%)” value [10] was “(8.5%)”, the “Pravastatin Patients n/total” value [10] was 38/448 and the “Pravastatin Patients (%)” value [11] was “(12.6%)”. The “Pravastatin Patients n/total” value [11] was 38/302, the “Pravastatin Patients (%)” value [12] was “(8.4%)” and the “Pravastatin Patients n/total” value [12] was 38/455. For the same molecule, the “2 Rare Alleles (%), Pravastatin Patients” value (PLAB hCV7494810, CARE Prospective) was “(6.9%)”, the “2 rare alleles n/total (%)” value (PLAB hCV7494810, Case/Control) was “(8.3%)” and the “Pravastatin vs placebo odds ratio, 0 rare alleles” value (PLAB hCV7494810, Case/Control) was 0.95. For the same molecule, the “Pravastatin vs placebo odds ratio, 0 rare alleles” value [13] was 1.03, the “Pravastatin vs placebo odds ratio, 1 rare allele” value [13] was 0.50 and 0.44 and the “Pravastatin vs placebo odds ratio, 2 rare alleles” value [13] was 1.62 and 1.45. For the same molecule, the “2 rare alleles n/total (%)” value (PLAB hCV7494810, Prospective) was “(8.3%)”, the “Pravastatin vs placebo odds ratio, 0 rare alleles” value (PLAB hCV7494810, Prospective) was 0.93 and the “Pravastatin vs placebo odds ratio, 0 rare alleles” value [14] was 1.03. The “Pravastatin vs placebo odds ratio, 1 rare allele” value [14] was 0.52 and 0.46, the “Pravastatin vs placebo odds ratio, 2 rare alleles” value [14] was 1.61 and 1.24 and the “Pravastatin vs. Placebo Odds Ratio (95% CI), Patients with 0 Rare Alleles” value [15] was 0.84 (0.58 to 1.22). For the same molecule, the “n/total (%) cases, Pravastatin Patients, 0 Rare Alleles” value (shortened to “n/total (%) cases … 0 Rare Alleles”) [15] was 67/416 (16.1%), the “Pravastatin vs. Placebo Odds Ratio (95% CI), Patients with 0 Rare Alleles” value [16] was 0.81 (0.56 to 1.16) and the “n/total (%) cases … 0 Rare Alleles” value [16] was 67/423 (15.8%). The “Pravastatin vs. Placebo Odds Ratio (95% CI), Patients with 0 Rare Alleles” value [17] was 0.77 (0.61 to 0.98), the “n/total (%) cases … 0 Rare Alleles” value [17] was 183/613 (29.9%) and the “Pravastatin vs. Placebo Odds Ratio (95% CI), Patients with 1 Rare Allele” value [15] was 0.63 (0.42 to 0.95). For the same molecule, the “n/total (%) cases, Pravastatin Patients, 1 Rare Allele” value (from here on “n/total (%) cases … 1 Rare Allele”) [15] was 50/335 (14.9%), the “Pravastatin vs. Placebo Odds Ratio (95% CI), Patients with 1 Rare Allele” value [16] was 0.64 (0.31 to 1.36) and the “n/total (%) cases … 1 Rare Allele” value [16] was 50/340 (14.7%). The “Pravastatin vs. Placebo Odds Ratio (95% CI), Patients with 1 Rare Allele” value [17] was 0.94 (0.58 to 1.54), the “n/total (%) cases … 1 Rare Allele” value [17] was 151/504 (30.0%) and the “ORs of fatal or non-fatal MI when treated with pravastatin” value (PON1 hCV2548962, 2 rare alleles, CARE and WOSCOPs sample sets) was 0.28-0.34. For the same molecule, the “Pravastatin vs. Placebo Odds Ratio (95% CI), Patients with 2 Rare Alleles” value [18] was 0.29 (0.12 to 0.71), the “n/total (%) cases, Pravastatin Patients, 2 Rare Alleles” value [18] was 9/79 (11.4%) and the “Pravastatin vs. Placebo Odds Ratio (95% CI), Patients with 2 Rare Alleles” value [19] was 0.32 (0.11 to 0.95). The “n/total (%) cases, Pravastatin Patients, 2 Rare Alleles” value [19] was 9/80 (11.3%) and the “Pravastatin vs. Placebo Odds Ratio (95% CI), Patients with 2 Rare Alleles” value (PON1 hCV2548962, 2 rare alleles, CARE Prospective, Total CHD Events, All Possible controls) was 0.28 (0.13 to 0.60).
